{
  "source": "patent US8183388B2",
  "about": "“Androgen receptor modulator and uses thereof” (Eli Lilly and Company, priority 2009, dated 2012)",
  "molecular_target": "T1, human MR (mineralocorticoid receptor) (Homo sapiens, UniProt P08235)",
  "T1 construct": "expressed in transfected cells; host or cells: HEK293 (lysate, 293-MR)",
  "T1 sequence (P08235 1-984)": "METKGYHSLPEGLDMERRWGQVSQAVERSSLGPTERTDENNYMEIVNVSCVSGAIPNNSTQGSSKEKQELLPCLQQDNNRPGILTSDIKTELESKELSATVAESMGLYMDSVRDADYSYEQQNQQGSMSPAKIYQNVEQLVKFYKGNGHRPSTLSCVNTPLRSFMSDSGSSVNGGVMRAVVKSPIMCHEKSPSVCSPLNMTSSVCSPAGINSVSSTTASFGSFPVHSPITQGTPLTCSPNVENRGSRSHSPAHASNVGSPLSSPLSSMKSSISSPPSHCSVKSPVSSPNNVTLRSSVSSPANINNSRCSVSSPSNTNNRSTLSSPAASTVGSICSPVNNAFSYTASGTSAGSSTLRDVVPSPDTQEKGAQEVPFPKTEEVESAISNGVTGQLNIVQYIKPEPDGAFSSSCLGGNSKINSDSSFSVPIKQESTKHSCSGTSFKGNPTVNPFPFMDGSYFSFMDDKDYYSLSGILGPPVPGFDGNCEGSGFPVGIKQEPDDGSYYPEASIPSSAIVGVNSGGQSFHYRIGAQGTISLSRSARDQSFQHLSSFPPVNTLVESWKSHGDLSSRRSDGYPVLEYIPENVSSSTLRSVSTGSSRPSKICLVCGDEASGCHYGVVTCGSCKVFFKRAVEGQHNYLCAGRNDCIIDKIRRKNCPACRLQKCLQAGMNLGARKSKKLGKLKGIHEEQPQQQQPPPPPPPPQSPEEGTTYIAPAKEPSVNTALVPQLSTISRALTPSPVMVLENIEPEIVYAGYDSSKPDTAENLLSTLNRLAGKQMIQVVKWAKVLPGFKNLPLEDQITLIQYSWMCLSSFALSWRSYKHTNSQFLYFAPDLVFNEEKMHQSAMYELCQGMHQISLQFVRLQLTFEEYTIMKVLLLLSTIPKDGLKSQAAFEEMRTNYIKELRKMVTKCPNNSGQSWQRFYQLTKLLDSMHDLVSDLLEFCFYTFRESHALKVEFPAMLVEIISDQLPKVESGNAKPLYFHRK",
  "assay": "Steroid hormone nuclear receptor binding assay, MR",
  "conditions": "HEK293 lysate overexpressing human MR, [3H]-aldosterone",
  "procedure": "Cell lysates from human embryonic kidney HEK293 cells overexpressing human MR (mineralocorticoid receptor), GR (glucocorticoid receptor), AR (androgen receptor), or PR (progesterone receptor) are used for receptor-ligand competition binding assays to determine Ki values. Typical procedures are provided below\nBriefly, steroid receptor competition binding assays are run in a buffer containing 20 mM HEPES buffer (pH=7.6), 0.2 mM EDTA, 75 mM NaCl, 1.5 mM MgCl2, 20% glycerol, 20 mM sodium molybdate, 0.2 mM DTT (dithiothreitol), 20 μg/mL aprotinin and 20 μg/mL leupeptin (assay buffer). Typically, steroid receptor binding assays include radio-labeled ligands, such as 0.25 nM [^3H]-aldosterone for MR binding, 0.3 nM [^3H]-dexamethasone for GR binding, 0.36 nM [^3H]-methyltrienolone for AR binding, and 0.29 nM [^3H]-methyltrienolone for PR binding, and either 20 μg 293-MR lysate, 20 μg 293-GR lysate, 22 μg 293-AR lysate, or 40 μg 293-PR lysate per well. Assays are typically run in 96-well format. Competing test compounds are added at various concentrations ranging from about 0.01 nM to 10 μM. Non-specific binding is determined in the presence of 500 nM aldosterone for MR binding, 500 nM dexamethasone for GR binding, or 500 nM methyltrienolone for AR and PR binding. […] After an incubation of 2 hours, plates are read in a Wallac Microbeta counter. […]",
  "data": [
    {"smiles": "CC(C)OC(=O)N[C@H]1Cc2c(n(C[C@H]3OCC[C@@H]3O)c3ccc(C#N)cc23)C1", "note": "[compound of Formula (I), [(S)-7-Cyano-4-((2R,3S)-3-hydroxytetrahydrofuran-2-ylmethyl)-1,2,3,4-tetrahydrocyclopenta[b]indol-2-yl]-carbamic acid isopropyl ester]", "values": [
      {"measurement": "Ki", "value": "> 4", "unit": "µM"}
    ]}
  ]
}
